A short description of assay [1]: Binding affinity to KRAS […] mutant (unknown origin) assessed as dissociation constant. More on the design: species or system Homo sapiens.
Assay [2] can be described thus: Inhibition of KRAS […] mutant (unknown origin) by HTRF assay. More on the design: species or system Homo sapiens. For orientation: TR-FRET usually uses a lanthanide donor and a delayed reading to cut background.
In assay [3] the target is T1, GTPase KRas (Homo sapiens, UniProt P01116).
Target sequence in this assay (P01116 whole entry, looked up): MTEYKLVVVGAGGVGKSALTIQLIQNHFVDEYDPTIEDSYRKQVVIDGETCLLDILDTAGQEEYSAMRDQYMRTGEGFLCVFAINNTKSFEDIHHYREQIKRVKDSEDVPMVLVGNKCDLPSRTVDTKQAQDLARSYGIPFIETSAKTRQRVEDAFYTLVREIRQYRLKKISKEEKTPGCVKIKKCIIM
Description: Binding affinity to KRAS (unknown origin) assessed as inactivation constant
Assay [4] has as its target T1, GTPase KRas. Kind of assay: Binding affinity to KRAS (unknown origin) assessed as inhibition constant.
Target sequence in this assay (P01116 whole entry): as the sequence (P01116 whole entry, looked up) above
For the next assay, the system named is MKN-1. Briefly: Antiproliferative activity against human MKN-1 cells assessed as reduction of cell viability. In kind it is functional, cell-based.
Assay [5] is described as follows: Inhibition of ERK phosphorylation in human AGS cells. It counts as cell-based.
In a further assay the test system is AGS. Kind of assay: Antiproliferative activity against human AGS cells assessed as reduction of cell viability. It counts as functional, cell-based.

SMILES strings stand for the structures.

Take `CN1CCC[C@H]1COc1nc(N2CCNCC2)c2cnc(-c3cccc4cccc(Cl)c34)c(F)c2n1`: the Kd (commonly a measure of binding affinity in units of concentration) in assay [1] came out at 3500 nM.

As to `Oc1cc(-c2ncc3c(N4CC5CCC(C4)N5)nc(OC[C@@]45CCCN4C[C@H](F)C5)nc3c2F)c2ccccc2c1`, the IC50 (as a rule, the concentration at which inhibition is half-maximal) in assay [2] was at most 2 nM.

The compound `C#Cc1c(F)ccc2cccc(-c3ncc4c(N5CC6CCC(C5)N6)nc(OCC56CCCN5CCC6)nc4c3F)c12` displayed an IC50 in assay [2] of at most 2 nM.

As to `C=CC(=O)N1CCN(c2ncnc3c(F)c(-c4c(O)cccc4F)c(Cl)cc23)CC1`, the Kinact on GTPase KRas [3] is 0.03 s⁻¹. Further, the Ki (commonly the dissociation constant of the complex between target and ligand, obtained from inhibition or displacement) on GTPase KRas [4] was found to be 31000 nM.

For the compound `CN1CCC[C@H]1COc1nc(N2CC3CCC(C2)N3)c2cnc(-c3cc(O)cc4ccccc34)c(F)c2n1`, the IC50 in assay [2] was 5 nM. The Kd in assay [1] is 0.8 nM.

For `C#Cc1c(F)ccc2cc(O)cc(-c3ncc4c(N5CC6CCC(C5)N6)nc(OC[C@@]56CCCN5C[C@H](F)C6)nc4c3F)c12` [MRTX-1133], the Kd in assay [1] was determined as 0.0002 nM. The IC50 with MKN-1 was above 3000 nM; in assay [5] it was 2 nM; in the assay with AGS, 6 nM.

Values taken from ChEMBL document CHEMBL5143589, “Drugging the Next Undruggable KRAS Allele-Gly12Asp” (J Med Chem, 2022).
